Values of other authors, collected in patent publication US20140018379A1, “PYRIMIDINE DERIVATIVES” (CONCERT PHARMACEUTICALS INC., priority 2010, published 2014).

Conditions: 12th CROI 2005, Abst 160

## Cc1cc(/C=C/C#N)cc(C)c1Nc1ccnc(Nc2ccc(C#N)cc2)n1.Cl [rilpivirine, 4-[4-[4-[(E)-2-cyanovinyl]-2,6-dimethylphenylamino]pyrimidin-2-ylamino]benzonitrile hydrochloride]
  safety and tolerability in clinical trials: safe and well-tolerated
Clinical trials
  most commonly reported adverse event: Headache
